Drawing on patent US20230339915A1 (Vertex Pharmaceuticals Incorporated, priority 2020, published 2023), this text covers EC50 and IC50 for 39 compounds.

Each structure is given as a SMILES string. pEC50, pIC50: −log10 of the molar value. Bounds are passed on as bounds.

Assay [1] has as its target NL20 human bronchial epithelial cells expressing human Z-AAT (Homo sapiens (Human), UniProt P01009, E366K). Briefly: AAT Function Assay (MSD Assay NL20-SI Cell Line). Format: cell-based. The conditions noted are these: functionally active AAT (AAT-hNE complex, MSD) in supernatant of NL20 cells expressing human Z-AAT; read-out: NL20 Functional EC50. The method, boiled down: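 Secreted active Z-AAT was measured by MSD electrochemiluminescence: supernatants (45-fold total dilution) were incubated with human neutrophil elastase to form AAT–elastase complexes, captured by goat anti-AAT and detected with labelled anti-elastase. Cells were doxycycline-induced (0.1 μM) NL20 bronchial cells treated with compound overnight; M-AAT standard curve.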

In assay [2] the target is purified Z-AAT protein from human plasma (Homo sapiens (Human), UniProt P01009, E366K). As to the kind of experiment: Biochemical Assay (Z-AAT Elastase Activity Assay). The conditions noted are these: purified Z-AAT pre-incubated with compound 1 hour, then human neutrophil elastase and fluorescent substrate. An outline of the steps: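 Purified plasma Z-AAT (20 nM) preincubated with compounds 1 h at room temperature, then 3 nM human neutrophil elastase added in PBS + 0.01% BRIJ35 for 30 min to form suicide complex. Residual elastase activity read immediately by fluorescence after adding 300 μM MeOSuc-AAPV-AMC substrate solution.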
Sequence of purified Z-AAT protein from human plasma (P01009 25-418 E366K limits assumed): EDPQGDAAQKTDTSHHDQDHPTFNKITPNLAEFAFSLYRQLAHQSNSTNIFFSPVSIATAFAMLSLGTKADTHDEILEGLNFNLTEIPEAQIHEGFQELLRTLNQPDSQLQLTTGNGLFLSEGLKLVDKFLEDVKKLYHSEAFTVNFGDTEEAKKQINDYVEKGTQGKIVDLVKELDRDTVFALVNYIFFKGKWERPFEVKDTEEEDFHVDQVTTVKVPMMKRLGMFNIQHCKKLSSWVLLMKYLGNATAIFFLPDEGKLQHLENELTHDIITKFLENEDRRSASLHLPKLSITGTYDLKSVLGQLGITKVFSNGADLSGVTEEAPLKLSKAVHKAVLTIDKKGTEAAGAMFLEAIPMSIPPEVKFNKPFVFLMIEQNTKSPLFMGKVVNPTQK

Sequence of NL20 human bronchial epithelial cells expressing human Z-AAT (P01009 25-418 E366K limits assumed): as above

With `COC[C@]1(C(=O)O)C[C@@H](c2c(C3CCOCC3)n(-c3ccc(F)c(C)c3)c3ccc(O)cc32)C1` [Compound 121], the pEC50 (in general, −log10 of the EC50, conventionally taken in molar units) in assay [1] is less than 5.70. Besides, the pIC50 (in general, −log10 of the IC50, conventionally taken in molar units) in assay [2] was less than 4.52.
On to `Cc1cc(-n2c(C(C)C)c(CCC(=O)O)c3cc(O)ccc32)ccc1F` [Compound 122], for which the pEC50 in assay [1] is 5.70 to 6.30. Besides, in assay [2], the pIC50 is less than 4.52.
Turning to `Cc1cc(-n2c(C3CCOCC3)c([C@H]3C[C@](C(=O)O)(C(F)F)C3)c3cc(O)ccc32)ccc1F` [Compound 123, cis-1-(difluoromethyl)-3-(1-(4-fluoro-3-methylphenyl)-5-hydroxy-2-(tetrahydro-2H-pyran-4-yl)-1H-indol-3-yl)cyclobutane-1-carboxylic acid], the pEC50 in assay [1] is less than 5.70. Moreover, the pIC50 in assay [2] was less than 4.52.
For `CC(C)c1c([C@H]2C[C@@H]2C(=O)O)c2cc(O)c(F)cc2n1-c1ccc(F)cc1` [Compound 125] the same measures were 5.70 to 6.30 and less than 4.52.
For the compound `Cc1cc(-n2c([C@H]3CCCO3)c([C@H]3C[C@@H]3C(=O)O)c3cc(O)ccc32)ccc1F` [Compound 126], in assay [1], the pEC50 was less than 5.70. The pIC50 in assay [2] was less than 4.52.
Take `CCc1c([C@H]2C[C@@H]2C(=O)O)c2cc(O)ccc2n1-c1ccc(F)c(C)c1` [Compound 127]: the pEC50 in assay [1] was less than 5.70. Also, the pIC50 in assay [2] is less than 4.52.
On to `Cc1cc(-n2c(C(C)C)c([C@H]3C[C@H]3C(=O)O)c3cc(O)ccc32)ccc1F` [Compound 128], for which the pEC50 in assay [1] was less than 5.70. Besides, in assay [2], the pIC50 was less than 4.52.
For `Cc1cc(-n2c(C3COC3)c([C@H]3C[C@@H]3C(=O)O)c3cc(O)ccc32)ccc1F` [Compound 131] the same measures were less than 5.70 and less than 4.52.
For `Cc1cc(-n2c(C3CC3)c([C@H]3C[C@@H]3C(=O)O)c3cc(O)ccc32)ccc1F` [Compound 132] the same measures were less than 5.70 and less than 4.52.
`Cc1cc(-n2c(C(C)C)c([C@H]3C[C@@H]3C(=O)O)c3cc(O)ccc32)ccc1F` [Compound 134]: the pEC50 in assay [1] is 5.70 to 6.30. In addition, in assay [2], the negative-log IC50 (pIC50) is less than 5.30.
On to `Cc1cc(-n2c(C(C)C)c([C@@H]3C[C@H]3C(=O)O)c3cc(O)ccc32)ccc1F` [Compound 135], for which the pEC50 in assay [1] was less than 5.70. For the same compound, in assay [2], the pIC50 is less than 4.52.
As to `O=C(O)[C@H]1CC[C@H](c2c(C3CCOCC3)n(-c3ccc(F)c(F)c3)c3ccc(O)cc32)CC1` [Compound 137], the pEC50 in assay [1] is less than 5.70. In assay [2], the negative-log IC50 (pIC50) is less than 4.52.
On the same counts, the results for `O=C(O)[C@H]1CC[C@@H](c2c(C3CCOCC3)n(-c3ccc(F)c(F)c3)c3ccc(O)cc32)CC1` [Compound 138] are less than 5.70 and less than 4.52.
For `Cc1cc(-n2c(C(F)(F)F)c([C@H]3C[C@](C)(C(=O)O)C3)c3cc(O)ccc32)ccc1F` [Compound 139, trans-3-(1-(4-fluoro-3-methylphenyl)-5-hydroxy-2-(trifluoromethyl)-1H-indol-3-yl)-1-methylcyclobutane-1-carboxylic acid] the same measures were 5.70 to 6.30 and less than 5.30.
As to `Cc1cc(-n2c(C(F)(F)F)c(C3CC4(CC(C(=O)O)C4)C3)c3cc(O)ccc32)ccc1F` (stereo not drawn) [Compound 140, 6-(1-(4-fluoro-3-methylphenyl)-5-hydroxy-2-(trifluoromethyl)-1H-indol-3-yl)spiro[3.3]heptane-2-carboxylic acid], the negative-log EC50 (pEC50) in assay [1] was 5.70 to 6.30. Also, in assay [2], the negative logarithm of the IC50 (pIC50) is less than 5.30.
With `CC(C)c1c([C@H]2C[C@H](C(=O)O)C2)c2cc(O)ccc2n1-c1ccc(F)c(F)c1` [Compound 141, trans-3-(1-(3,4-difluorophenyl)-5-hydroxy-2-isopropyl-1H-indol-3-yl)cyclobutane-1-carboxylic acid], the pEC50 in assay [1] was 5.70 to 6.30. In assay [2], the negative logarithm of the IC50 (pIC50) was less than 5.30.
Consider `CC(C)c1c([C@H]2C[C@@H](C(=O)O)C2)c2cc(O)ccc2n1-c1ccc(F)c(F)c1` [Compound 142, cis-3-(1-(3,4-difluorophenyl)-5-hydroxy-2-isopropyl-1H-indol-3-yl)cyclobutane-1-carboxylic acid], for which the pEC50 in assay [1] was less than 5.70. The pIC50 in assay [2] is less than 4.52.
As to `Cc1cc(-n2c(C3CCOCC3)c([C@H]3C[C@@H](C(=O)O)C3)c3cc(O)ccc32)ccn1` [Compound 143], the negative-log EC50 (pEC50) in assay [1] is less than 5.70. The negative-log IC50 (pIC50) in assay [2] is less than 4.52.
Regarding `Cc1cc(-n2c(C(C)C)c([C@H]3C[C@@H](C(=O)O)C3)c3cc(O)ccc32)ccn1` [Compound 144], the negative-log EC50 (pEC50) in assay [1] is less than 5.70. The pIC50 in assay [2] is less than 4.52.
For `Cc1cc(-n2c(C(C)C)c([C@H]3C[C@H](C(=O)O)C3)c3cc(O)ccc32)ccc1F` [Compound 145] the same measures were 5.70 to 6.30 and less than 5.30.
On to `Cc1cc(-n2c(C(C)C)c([C@H]3C[C@@H](C(=O)O)C3)c3cc(O)ccc32)ccc1F` [Compound 146], for which the negative logarithm of the EC50 (pEC50) in assay [1] was 5.70 to 6.30. In assay [2], the pIC50 is less than 4.52.
For the compound `Cc1cc(-n2c(C(C)C)c(C3CN(CC(=O)O)C3)c3cc(O)ccc32)ccc1F` [Compound 147], the pEC50 in assay [1] is less than 5.70. In addition, in assay [2], the pIC50 was less than 4.52.
Consider `Cc1cc(-n2c(C(C)C)c(C3CC4(C3)CC(F)(C(=O)O)C4)c3cc(O)ccc32)ccc1F` (stereo not drawn) [Compound 148, 2-fluoro-6-(1-(4-fluoro-3-methylphenyl)-5-hydroxy-2-isopropyl-1H-indol-3-yl)spiro[3.3]heptane-2-carboxylic acid], for which, in assay [1], the negative logarithm of the EC50 (pEC50) is greater than 6.30. Moreover, in assay [2], the pIC50 is greater than 5.70.
For `Cc1cc(-n2c(C(C)C)c(C3CC4(C3)CC(F)(C(=O)O)C4)c3cc(O)ccc32)ccc1F` (stereo not drawn) [Compound 149, 2-fluoro-6-(1-(4-fluoro-3-methylphenyl)-5-hydroxy-2-isopropyl-1H-indol-3-yl)spiro[3.3]heptane-2-carboxylic acid], the pEC50 in assay [1] is 5.70 to 6.30. Also, the pIC50 in assay [2] was 5.30 to 5.70.
Turning to `COC(C)(Cc1c(C(C)C)n(-c2ccc(F)c(C)c2)c2ccc(O)cc12)C(=O)O` (stereo not drawn) [Compound 151, 3-(1-(4-fluoro-3-methylphenyl)-5-hydroxy-2-isopropyl-1H-indol-3-yl)-2-methoxy-2-methylpropanoic acid], the negative-log EC50 (pEC50) in assay [1] was less than 5.70. The negative logarithm of the IC50 (pIC50) in assay [2] was less than 4.52.
On the same counts, the results for `Cc1cc(-n2c(C(C)C)c(CC(C)(O)C(=O)O)c3cc(O)ccc32)ccc1F` (stereo not drawn) [Compound 152, 3-[1-(4-fluoro-3-methyl-phenyl)-5-hydroxy-2-isopropyl-indol-3-yl]-2-hydroxy-2-methyl-propanoic acid] are less than 5.70 and less than 4.52.
Consider `Cc1cc(-n2c(C(C)C)c(CC(=O)O)c3cc(O)ccc32)ccc1F` [Compound 153, 2-(1-(4-fluoro-3-methylphenyl)-5-hydroxy-2-isopropyl-1H-indol-3-yl)acetic acid], for which, in assay [1], the pEC50 is less than 5.70. The pIC50 in assay [2] was less than 4.52.
On to `Cc1cc(-n2c(C3CC3)c(C(Cc3ccccc3)C(=O)O)c3cc(O)ccc32)ccc1F` (stereo not drawn) [Compound 156, 2-(2-cyclopropyl-1-(4-fluoro-3-methylphenyl)-5-hydroxy-1H-indol-3-yl)-3-phenylpropanoic acid], for which, in assay [1], the pEC50 is less than 5.70. The pIC50 in assay [2] was less than 4.52.
On the same counts, the results for `CCC(C(=O)O)c1c(C)n(-c2ccc(F)c(C)c2)c2ccc(O)cc12` (stereo not drawn) [Compound 158] are less than 5.70 and less than 4.52.
With `Cc1cc(-n2c(C)c(C(C)C(=O)O)c3cc(O)ccc32)ccc1F` (stereo not drawn) [Compound 159], in assay [1], the pEC50 is less than 5.70. Moreover, the negative-log IC50 (pIC50) in assay [2] was less than 4.52.
For `Cc1cc(-n2c(C3CC3)c(CC(=O)O)c3cc(O)ccc32)ccc1F` [Compound 160], in assay [1], the pEC50 was less than 5.70. The pIC50 in assay [2] was less than 4.52.
For `Cc1cc(-n2c(C)c(CC(=O)O)c3cc(O)ccc32)ccn1` [Compound 161] the same measures were less than 5.70 and less than 4.52.
Regarding `Cc1cc(-n2c(C)c(CC(=O)O)c3cc(O)ccc32)ccc1F` [Compound 162], the pEC50 in assay [1] was less than 5.70. In assay [2], the pIC50 was less than 4.52.
For `Cc1cc(-n2c(C(C)C)c(CCC(=O)O)c3cc(O)c(F)cc32)ccc1F` [Compound 163, 3-(6-fluoro-1-(4-fluoro-3-methylphenyl)-5-hydroxy-2-isopropyl-1H-indol-3-yl)propanoic acid] the same measures were greater than 6.30 and less than 4.52.
Take `COCC(C)(C)c1c(-c2ccc(C(=O)O)cc2)c2cc(O)ccc2n1-c1ccc(F)cc1` [Compound 164, 4-(1-(4-fluorophenyl)-5-hydroxy-2-(1-methoxy-2-methylpropan-2-yl)-1H-indol-3-yl)benzoic acid]: the pEC50 in assay [1] is greater than 6.30. Besides, in assay [2], the pIC50 was greater than 5.70.
For `CC(C)(CC#N)c1c(-c2ccc(C(=O)O)cc2)c2cc(O)ccc2n1-c1ccc(F)cc1` [Compound 165, 4-(2-(1-cyano-2-methylpropan-2-yl)-1-(4-fluorophenyl)-5-hydroxy-1H-indol-3-yl)benzoic acid] the same measures were 5.70 to 6.30 and greater than 5.70.
On the same counts, the results for `Cc1cc(-n2c(C3CCOCC3)c(-c3ccc(C(=O)O)cc3)c3cc(O)ccc32)ccc1F` [Compound 166, 4-(1-(4-fluoro-3-methylphenyl)-5-hydroxy-2-(tetrahydro-2H-pyran-4-yl)-1H-indol-3-yl)benzoic acid] are less than 5.70 and less than 4.52.
`Cc1cc(-n2c(C(C)C)c(-c3cccc(C(=O)O)c3)c3cc(O)ccc32)ccc1F` [Compound 168]: the pEC50 in assay [1] was greater than 6.30. The pIC50 in assay [2] was 5.30 to 5.70.
As for `Cc1cc(-n2c(C(C)C)c(-c3ccccc3C(=O)O)c3cc(O)ccc32)ccc1F` [Compound 169], the negative logarithm of the EC50 (pEC50) in assay [1] was less than 5.70. Also, the negative logarithm of the IC50 (pIC50) in assay [2] was less than 4.52.
